From US20250034216A1, “STEREOSELECTIVE COVALENT LIGANDS FOR ONCOGENIC AND IMMUNOLOGICAL PROTEINS” (The Scripps Research Institute, priority 2021, published 2025)

How the values were obtained:
Assay in all cases: IA-DTB cysteine engagement
Format in all cases: binding
Settings in all cases: 22Rv1 cells, 20 μM probe, 1 h, relative to DMSO
[1] = biological target: T1, BCKDK_C111 (Homo sapiens, UniProt O14874)
T1 construct: endogenous in cells; host or cells: 22Rv1
Summary of the method: (§1)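 First, cells are exposed to electrophilic probes in situ. Next, lysates are labeled with IA-DTB (1 h, ambient temperature), reduced, alkylated and trypsin-digested. Then, IA-DTB peptides are enriched on streptavidin, TMT-labeled and analyzed, with ratios taken against DMSO channels.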

[2] = biological target: T2, LMF2_C659 (Homo sapiens, UniProt Q9BU23)
T2 construct: endogenous in cells; host or cells: 22Rv1
T2 sequence (Q9BU23 1-707): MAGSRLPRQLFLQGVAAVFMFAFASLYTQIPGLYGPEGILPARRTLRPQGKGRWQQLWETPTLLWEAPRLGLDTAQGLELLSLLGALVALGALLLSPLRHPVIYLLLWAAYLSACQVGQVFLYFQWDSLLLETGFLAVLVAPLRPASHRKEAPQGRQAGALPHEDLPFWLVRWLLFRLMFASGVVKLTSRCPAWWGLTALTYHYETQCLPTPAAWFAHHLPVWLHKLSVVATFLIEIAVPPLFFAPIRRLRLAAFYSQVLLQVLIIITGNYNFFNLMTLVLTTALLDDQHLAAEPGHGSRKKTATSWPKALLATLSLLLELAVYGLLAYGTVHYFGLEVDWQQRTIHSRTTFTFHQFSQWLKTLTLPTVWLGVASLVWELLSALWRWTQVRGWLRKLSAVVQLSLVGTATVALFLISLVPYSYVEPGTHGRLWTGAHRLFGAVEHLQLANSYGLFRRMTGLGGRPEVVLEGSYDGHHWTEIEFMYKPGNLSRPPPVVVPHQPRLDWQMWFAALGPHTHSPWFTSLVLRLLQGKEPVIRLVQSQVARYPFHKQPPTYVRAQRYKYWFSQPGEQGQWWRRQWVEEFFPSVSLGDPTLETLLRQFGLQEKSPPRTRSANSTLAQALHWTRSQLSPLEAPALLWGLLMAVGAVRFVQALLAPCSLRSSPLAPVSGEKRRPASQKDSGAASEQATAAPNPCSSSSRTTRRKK
Summary of the method: as §1

[3] = biological target: T3, PRXL2A_C88 (Homo sapiens, UniProt Q9BRX8)
T3 construct: endogenous in cells; host or cells: 22Rv1
T3 sequence (Q9BRX8 1-229): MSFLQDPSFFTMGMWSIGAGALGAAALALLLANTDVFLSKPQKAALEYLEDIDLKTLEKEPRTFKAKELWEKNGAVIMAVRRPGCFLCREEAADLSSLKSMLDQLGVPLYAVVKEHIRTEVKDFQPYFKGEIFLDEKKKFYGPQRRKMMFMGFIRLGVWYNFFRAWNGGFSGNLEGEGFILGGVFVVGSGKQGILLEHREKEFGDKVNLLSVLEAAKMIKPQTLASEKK
Summary of the method: as §1

SMILES | % engagement BCKDK_C111 [1] | % engagement LMF2_C659 [2] | % engagement PRXL2A_C88 [3]
C=CC(=O)N1C[C@H](c2ccc(Br)cc2)[C@H]1C(=O)Nc1cccc2cccnc12 [MY-3A, (2S,3S)-1-acryloyl-3-(4-bromophenyl)-N-(quinolin-8-yl)azetidine-2-carboxamide] | 19.5% | 44.75% | 95%
C=CC(=O)N1C[C@H](c2ccc(Br)cc2)[C@@H]1C(=O)Nc1cccc2cccnc12 [MY-1B, (2R,3S)-1-acryloyl-3-(4-bromophenyl)-N-(quinolin-8-yl)azetidine-2-carboxamide] | 14.5% | 65.75% | 97.25%
C=CC(=O)N1C[C@H](c2ccc(Br)cc2)[C@H]1C(=O)Nc1cccc2cccnc12 [MY-3B, (2S,3S)-1-acryloyl-3-(4-bromophenyl)-N-(quinolin-8-yl)azetidine-2-carboxamide] | 76.75% | 69.25% | 97.25%
C=CC(=O)N1C[C@@H](c2ccc(Br)cc2)[C@H]1C(=O)Nc1cccc2cccnc12 [MY-1A, (2S,3R)-1-acryloyl-3-(4-bromophenyl)-N-(quinolin-8-yl)azetidine-2-carboxamide] | 17.25% | 66% | 96.25%
